The values that follow come from patent US20160317525A1 (Teva Pharmaceutical Industries, Ltd., priority 2013, published 2016).

The minimal effective dose is the lowest level tested that produced the effect sought.

Data set [1] has as its system MOG induced EAE. The data set can be described thus: Laquinimod combined with teriflunomide in MOG induced EAE (Example 2). The note with it: Day 1-30; for GMS: group mean score; for MMS: mean maximal score; for % inhibition (GMS) / % inhibition (Incidence) / % inhibition (MMS): vs vehicle. The class given is in vivo, mice of the C57BL/6 strain.
The subject of data set [2] is experimental autoimmune encephalomyelitis. The conditions noted are these: in mice; Merill et al., 2009; cited from earlier work.
For data set [3] the following is noted: 7 mg/day and 14 mg/day; O'Connor et al. 2011; cited from earlier work.
Data set [4] has as its target CYP2C9 (Homo sapiens, UniProt P11712). The note with it: O'Connor et al. 2006 and Warneke et al. 2009; cited from earlier work.
The conditions of data set [5]: animal studies; cited from earlier work.

Sequence of CYP2C9 (P11712 whole entry): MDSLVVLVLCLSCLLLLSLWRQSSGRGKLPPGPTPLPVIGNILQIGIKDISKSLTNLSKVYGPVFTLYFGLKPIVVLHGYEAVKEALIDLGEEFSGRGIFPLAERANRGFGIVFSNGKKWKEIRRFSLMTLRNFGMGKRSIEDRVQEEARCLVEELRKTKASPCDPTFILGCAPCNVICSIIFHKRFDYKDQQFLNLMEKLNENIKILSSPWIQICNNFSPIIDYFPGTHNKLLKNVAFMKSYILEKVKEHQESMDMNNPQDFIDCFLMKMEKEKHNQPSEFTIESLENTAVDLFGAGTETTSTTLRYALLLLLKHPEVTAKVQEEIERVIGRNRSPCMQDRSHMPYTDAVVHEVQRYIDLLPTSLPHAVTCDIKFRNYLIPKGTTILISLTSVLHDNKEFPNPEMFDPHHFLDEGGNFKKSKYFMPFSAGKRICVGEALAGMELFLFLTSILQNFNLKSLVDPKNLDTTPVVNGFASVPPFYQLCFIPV

Regarding `CCN(C(=O)c1c(O)c2c(Cl)cccc2n(C)c1=O)c1ccccc1` [Laquinimod, 5-chloro-N-ethyl-4-hydroxy-1-methyl-2-oxo-N-phenyl-1,2-dihydroquinoline-3-carboxamide], in data set [1] (Laquinimod 5 mg/kg/day gavage), the “Duration” value stood at 5.7 ± 5.1 days, the Incidence was 9/15, the Mortality is 0/15 and the “Onset” value came to 20.5 ± 6.6 days. Further, in data set [1] (Laquinimod 5 mg/kg/day gavage), the GMS amounted to 1.02 ± 1.01, the MMS was 1.9 ± 1.8, the “% inhibition (GMS)” value was 58.4% and the “% inhibition (Incidence)” value stood at 35.7%. Moreover, the “% inhibition (MMS)” value in data set [1] (Laquinimod 5 mg/kg/day gavage) came out at 45.7%. Besides, in data set [1] (Laquinimod 25 mg/kg/day gavage), the “Duration” value is 1.3 ± 3.5 days, the Incidence was 2/15, the Mortality is 0/15 and the “Onset” value is on record as 26.3 ± 4.4 days. Besides, in data set [1] (Laquinimod 25 mg/kg/day gavage), the GMS is reported as 0.18 ± 0.52, the MMS stood at 0.4 ± 1.1, the “% inhibition (GMS)” value amounted to 92.7% and the “% inhibition (Incidence)” value was found to be 85.7%. Further, the “% inhibition (MMS)” value in data set [1] (Laquinimod 25 mg/kg/day gavage) is 88.6%.

For the compound `C/C(O)=C(\C#N)C(=O)Nc1ccc(C(F)(F)F)cc1` [Teriflunomide, (2Z)-2-cyano-3-hydroxy-N-[4-(trifluoromethyl)phenyl]but-2-enamide], in data set [1] (Teriflunomide 3 mg/kg gavage), the “Duration” value came out at 11.6 ± 2.3 days, the Incidence is 15/15, the Mortality was 0/15 and the “Onset” value was 14.0 ± 1.5 days. Further, in data set [1] (Teriflunomide 3 mg/kg gavage), the GMS is 2.34 ± 0.65, the MMS was determined as 3.7 ± 0.6 and the “% inhibition (GMS)” value came out at 4.5%. In data set [1] (Teriflunomide 10 mg/kg gavage), the “Duration” value was 7.5 ± 5.5 days, the Incidence is on record as 12/15, the Mortality was 0/15 and the “Onset” value stood at 18.3 ± 6.4 days. In addition, in data set [1] (Teriflunomide 10 mg/kg gavage), the GMS is on record as 1.40 ± 1.18, the MMS turned out to be 2.4 ± 1.7, the “% inhibition (GMS)” value is 42.9% and the “% inhibition (Incidence)” value amounted to 14.3%. Further, the “% inhibition (MMS)” value in data set [1] (Teriflunomide 10 mg/kg gavage) worked out at 31.4%. In addition, in data set [2], the minimal effective dose is on record as 3 mg/kg. Further, in data set [3], the “annualized relapse rate versus the placebo” value is reported as “reduce the annualized relapse rate”. Also, the CYP2C9 inhibition result in data set [4] is “inhibit CYP2C9”. The teratogenicity entry in data set [5] was “teratogenic”.
